Reference: ChEMBL document CHEMBL4011590, “Structure-activity relationship studies on 3,5-dinitrophenyl tetrazoles as antitubercular agents” (Eur J Med Chem, 2017)
In brackets after ≈: the same amount, converted by molar mass.

Legend:
Klebsiella pneumoniae [1] = test: Antibacterial activity against extended spectrum beta-lactamase producing Klebsiella pneumoniae HK14368/08 after 24 hrs by broth microdilution method; type: functional; conditions: HK14368/08, 24 h
Mycobacterium kansasii [2] = test: Antimycobacterial activity against Mycobacterium kansasii isolate 6509/96 after 21 days by micromethod; type: functional; conditions: isolate 6509/96, 504 h
Klebsiella pneumoniae [3] = test: Antibacterial activity against extended spectrum beta-lactamase producing Klebsiella pneumoniae HK14368/08 after 48 hrs by broth microdilution method; type: functional; conditions: HK14368/08, 48 h
Mycobacterium avium [4] = test: Antimycobacterial activity against Mycobacterium avium CNCTC My 330/80 after 14 days by micromethod; type: functional; conditions: CNCTC My 330/80, 336 h
Staphylococcus aureus [5] = test: Antibacterial activity against Staphylococcus aureus ATCC 6538 after 48 hrs by broth microdilution method; type: functional; conditions: ATCC 6538, 48 h
[6] = test system: Staphylococcus epidermidis; test: Antibacterial activity against Staphylococcus epidermidis HK6966/08 after 24 hrs by broth microdilution method; type: functional; conditions: HK6966/08, 24 h
Nakaseomyces glabratus [7] = test: Antifungal activity against Candida glabrata 20/I after 24 hrs by broth microdilution method; type: functional
[8] = test system: Trichophyton mentagrophytes; test: Antifungal activity against Trichophyton mentagrophytes 445 after 120 hrs by broth microdilution method; type: functional; conditions: Trichophyton mentagrophytes, 445, 120 h
Staphylococcus aureus [9] = test: Antibacterial activity against Staphylococcus aureus ATCC 6538 after 24 hrs by broth microdilution method; type: functional; conditions: ATCC 6538, 24 h
Candida tropicalis [10] = test: Antifungal activity against Candida tropicalis 156 after 24 hrs by broth microdilution method; type: functional; conditions: Candida tropicalis, 156, 24 h
Lichtheimia corymbifera [11] = test: Antifungal activity against Absidia corymbifera 272 after 24 hrs by broth microdilution method; type: functional; conditions: Lichtheimia corymbifera, 272, 24 h
[12] = test system: Mycobacterium tuberculosis; test: Antimycobacterial activity against Mycobacterium tuberculosis H37Rv CNCTC My 331/88 after 21 days by micromethod; type: functional; conditions: H37Rv CNCTC My 331/88, 504 h
Escherichia coli [13] = test: Antibacterial activity against Escherichia coli ATCC 8739 after 48 hrs by broth microdilution method; type: functional; conditions: ATCC 8739, 48 h
Mycobacterium kansasii [14] = test: Antimycobacterial activity against Mycobacterium kansasii CNCTC My 235/80 after 7 days by micromethod; type: functional; conditions: CNCTC My 235/80, 168 h
Pichia kudriavzevii [15] = test: Antifungal activity against Candida krusei E28 after 48 hrs by broth microdilution method; type: functional; conditions: E28, 48 h
Staphylococcus aureus [16] = test: Antibacterial activity against methicillin-resistant Staphylococcus aureus HK5996/08 after 24 hrs by broth microdilution method; type: functional; conditions: HK5996/08, 24 h
Aspergillus fumigatus [17] = test: Antifungal activity against Aspergillus fumigatus 231 after 48 hrs by broth microdilution method; type: functional; conditions: Aspergillus fumigatus, 231, 48 h
Enterococcus sp. [18] = test: Antibacterial activity against Enterococcus sp. HK14365/08 after 24 hrs by broth microdilution method; type: functional; conditions: HK14365/08, 24 h
Candida albicans [19] = test: Antifungal activity against Candida albicans ATCC 44859 after 48 hrs by broth microdilution method; type: functional; conditions: ATCC 44859, 48 h
[20] = test system: Trichophyton mentagrophytes; test: Antifungal activity against Trichophyton mentagrophytes 445 after 72 hrs by broth microdilution method; type: functional; conditions: Trichophyton mentagrophytes, 445, 72 h
Mycobacterium kansasii [21] = test: Antimycobacterial activity against Mycobacterium kansasii CNCTC My 235/80 after 21 days by micromethod; type: functional; conditions: CNCTC My 235/80, 504 h
[22] = test system: Staphylococcus epidermidis; test: Antibacterial activity against Staphylococcus epidermidis HK6966/08 after 48 hrs by broth microdilution method; type: functional; conditions: HK6966/08, 48 h
CHO-K1 = test: Cytotoxicity against CHOK1 cells after 24 hrs by MTT assay; type: cell-based; conditions: Cricetulus griseus, CHO-K1, 24 h
Staphylococcus aureus [23] = test: Antibacterial activity against methicillin-resistant Staphylococcus aureus HK5996/08 after 48 hrs by broth microdilution method; type: functional; conditions: HK5996/08, 48 h
Candida tropicalis [24] = test: Antifungal activity against Candida tropicalis 156 after 48 hrs by broth microdilution method; type: functional; conditions: Candida tropicalis, 156, 48 h
Klebsiella pneumoniae [25] = test: Antibacterial activity against Klebsiella pneumoniae HK11750/08 after 48 hrs by broth microdilution method; type: functional; conditions: HK11750/08, 48 h
Klebsiella pneumoniae [26] = test: Antibacterial activity against Klebsiella pneumoniae HK11750/08 after 24 hrs by broth microdilution method; type: functional; conditions: HK11750/08, 24 h
Nakaseomyces glabratus [27] = test: Antifungal activity against Candida glabrata 20/I after 48 hrs by broth microdilution method; type: functional
Pseudomonas aeruginosa [28] = test: Antibacterial activity against Pseudomonas aeruginosa ATCC 9027 after 48 hrs by broth microdilution method; type: functional; conditions: ATCC 9027, 48 h
Trichosporon asahii [29] = test: Antifungal activity against Trichosporon asahii 1188 after 24 hrs by broth microdilution method; type: functional; conditions: Trichosporon asahii, 1188, 24 h
Mycobacterium kansasii [30] = test: Antimycobacterial activity against Mycobacterium kansasii isolate 6509/96 after 7 days by micromethod; type: functional; conditions: isolate 6509/96, 168 h
[31] = test system: Mycobacterium tuberculosis; test: Antimycobacterial activity against Mycobacterium tuberculosis H37Rv CNCTC My 331/88 after 14 days by micromethod; type: functional; conditions: H37Rv CNCTC My 331/88, 336 h
Pichia kudriavzevii [32] = test: Antifungal activity against Candida krusei E28 after 24 hrs by broth microdilution method; type: functional; conditions: E28, 24 h
Aspergillus fumigatus [33] = test: Antifungal activity against Aspergillus fumigatus 231 after 24 hrs by broth microdilution method; type: functional; conditions: Aspergillus fumigatus, 231, 24 h
Escherichia coli [34] = test: Antibacterial activity against Escherichia coli ATCC 8739 after 24 hrs by broth microdilution method; type: functional; conditions: ATCC 8739, 24 h
Trichosporon asahii [35] = test: Antifungal activity against Trichosporon asahii 1188 after 48 hrs by broth microdilution method; type: functional; conditions: Trichosporon asahii, 1188, 48 h
Mycobacterium avium [36] = test: Antimycobacterial activity against Mycobacterium avium CNCTC My 330/80 after 21 days by micromethod; type: functional; conditions: CNCTC My 330/80, 504 h
Candida albicans [37] = test: Antifungal activity against Candida albicans ATCC 44859 after 24 hrs by broth microdilution method; type: functional; conditions: ATCC 44859, 24 h
Mycobacterium kansasii [38] = test: Antimycobacterial activity against Mycobacterium kansasii isolate 6509/96 after 14 days by micromethod; type: functional; conditions: isolate 6509/96, 336 h
Lichtheimia corymbifera [39] = test: Antifungal activity against Absidia corymbifera 272 after 48 hrs by broth microdilution method; type: functional; conditions: Lichtheimia corymbifera, 272, 48 h
Mycobacterium kansasii [40] = test: Antimycobacterial activity against Mycobacterium kansasii CNCTC My 235/80 after 14 days by micromethod; type: functional; conditions: CNCTC My 235/80, 336 h
Pseudomonas aeruginosa [41] = test: Antibacterial activity against Pseudomonas aeruginosa ATCC 9027 after 24 hrs by broth microdilution method; type: functional; conditions: ATCC 9027, 24 h
Enterococcus sp. [42] = test: Antibacterial activity against Enterococcus sp. HK14365/08 after 48 hrs by broth microdilution method; type: functional; conditions: HK14365/08, 48 h

COc1ccc(Cn2nnnc2-c2cc([N+](=O)[O-])cc([N+](=O)[O-])c2)cc1
MIC (Klebsiella pneumoniae [1]): 250 µM (≈ 89.1 µg/mL) | MIC99 (Mycobacterium kansasii [2]): 16 µM (≈ 5.7 µg/mL) | MIC (Klebsiella pneumoniae [3]): 125 µM (≈ 44.5 µg/mL) | MIC99 (Mycobacterium avium [4]): 16 µM (≈ 5.7 µg/mL) | MIC (Staphylococcus aureus [5]): 62.5 µM (≈ 22.3 µg/mL) | MIC [6]: 62.5 µM (≈ 22.3 µg/mL) | MIC (Nakaseomyces glabratus [7]): 500 µM (≈ 178 µg/mL) | MIC [8]: 500 µM (≈ 178 µg/mL) | MIC (Staphylococcus aureus [9]): 62.5 µM (≈ 22.3 µg/mL) | MIC (Candida tropicalis [10]): 500 µM (≈ 178 µg/mL) | MIC (Lichtheimia corymbifera [11]): 500 µM (≈ 178 µg/mL) | MIC99 [12]: 8 µM (≈ 2.85 µg/mL) | MIC (Escherichia coli [13]): 62.5 µM (≈ 22.3 µg/mL) | MIC99 (Mycobacterium kansasii [14]): 16 µM (≈ 5.7 µg/mL) | MIC (Pichia kudriavzevii [15]): 250 µM (≈ 89.1 µg/mL) | MIC (Staphylococcus aureus [16]): 31.2 µM (≈ 11.1 µg/mL) | MIC (Aspergillus fumigatus [17]): 500 µM (≈ 178 µg/mL) | MIC (Enterococcus sp. [18]): 62.5 µM (≈ 22.3 µg/mL) | MIC (Candida albicans [19]): 250 µM (≈ 89.1 µg/mL) | MIC [20]: 500 µM (≈ 178 µg/mL) | MIC99 (Mycobacterium kansasii [21]): 32 µM (≈ 11.4 µg/mL) | MIC [22]: 62.5 µM (≈ 22.3 µg/mL) | IC50 (CHO-K1): 21 µM | MIC (Staphylococcus aureus [23]): 15.6 µM (≈ 5.57 µg/mL) | MIC (Candida tropicalis [24]): 500 µM (≈ 178 µg/mL) | MIC (Klebsiella pneumoniae [25]): 125 µM (≈ 44.5 µg/mL) | MIC (Klebsiella pneumoniae [26]): 250 µM (≈ 89.1 µg/mL) | MIC (Nakaseomyces glabratus [27]): 500 µM (≈ 178 µg/mL) | MIC (Pseudomonas aeruginosa [28]): > 500 µM | MIC (Trichosporon asahii [29]): 500 µM (≈ 178 µg/mL) | MIC99 (Mycobacterium kansasii [30]): 8 µM (≈ 2.85 µg/mL) | MIC99 [31]: 8 µM (≈ 2.85 µg/mL) | MIC (Pichia kudriavzevii [32]): 250 µM (≈ 89.1 µg/mL) | MIC (Aspergillus fumigatus [33]): 500 µM (≈ 178 µg/mL) | MIC (Escherichia coli [34]): 125 µM (≈ 44.5 µg/mL) | MIC (Trichosporon asahii [35]): 500 µM (≈ 178 µg/mL) | MIC99 (Mycobacterium avium [36]): 32 µM (≈ 11.4 µg/mL) | MIC (Candida albicans [37]): 250 µM (≈ 89.1 µg/mL) | MIC99 (Mycobacterium kansasii [38]): 8 µM (≈ 2.85 µg/mL) | MIC (Lichtheimia corymbifera [39]): 500 µM (≈ 178 µg/mL) | MIC99 (Mycobacterium kansasii [40]): 32 µM (≈ 11.4 µg/mL) | MIC (Pseudomonas aeruginosa [41]): > 500 µM | MIC (Enterococcus sp. [42]): 62.5 µM (≈ 22.3 µg/mL)
